In a melting point compilation (Tetko et al.; mined from patent text by program, amines drawn as free bases though some values may be those of a salt):

First: O=C(O)c1cc(-c2ccccc2)c2c(n1)OCCN(Cc1cc(C(F)(F)F)cc(C(F)(F)F)c1)C2=O
Second: CC(C)(c1cccc(C(F)(F)F)c1)N1C[C@H]([C@H](Cc2ccccc2)NC(=O)c2cc(C(=O)O)c3n2CCN(S(C)(=O)=O)C3)OC1=O
The melting point of the first is lower: 119 to 123 °C for the first, 147 °C for the second.

Compared with `CNC(=S)C1(c2ccccn2)CCCO1` (stereo unspecified), `CC(=O)Nc1ccc2c(c1)OCCCO2` is lower in melting point: 115 °C for the first, 108 to 109 °C for the second.

Compared with `CCN1CC2OC(c3ccccc3)(C1)c1ccccc12` (stereo unspecified), `CC1(CC(=O)Nc2ccccc2)OCCc2c1[nH]c1ccccc21` (stereo unspecified) is higher in melting point: 132 to 134 °C for the first, 205 to 208 °C for the second.

Compared with `COCOc1ccc(C(C)=O)c(O)c1`, `COc1ccc(C(=O)O)c([N+](=O)[O-])c1OC` is higher in melting point: 38 to 39 °C for the first, 200 to 202 °C for the second.

First: CC(=O)Nc1ccc(S(=O)(=O)Nc2nc(=O)n(C3CC3)cc2C)cc1
Second: CC(=O)Nc1ccc(S(=O)(=O)C/C=C2/CN3C(=O)C[C@H]3O2)cc1
The melting point of the first is higher: 176 to 181 °C for the first, 110 to 111 °C for the second.

First: CONS(=O)(=O)c1ccc(Cl)cc1
Second: CC[C@H](C)[C@@H](CO)NS(=O)(=O)c1ccc(Cl)c(N)c1
The melting point of the first is lower: 81 to 82.5 °C for the first, 89 to 92 °C for the second.

First: CCOC(=O)C(=O)Nc1cc(CC)c(C(=O)OCC)s1
Second: CCOC(=O)c1cc(NC(=O)C(N)Cc2ccc(Cl)c(Cl)c2)c[nH]1 (stereo unspecified)
The melting point of the first is lower: 103 to 105 °C for the first, 134 to 136 °C for the second.

Compared with `C=CCc1ccc(O)c(-c2cc(CC=C)ccc2O)c1`, `COc1cc(CCC=CC(C)=O)ccc1OCc1ccccc1` is lower in melting point: 101 to 103 °C for the first, 59.5 to 60.5 °C for the second.

First: CN(C)C(=O)c1cc(CN2C(=O)C3(COc4cc5c(cc43)OCO5)c3ccccc32)oc1C(F)(F)F (stereo unspecified)
Second: CCCCCC(=O)Nc1cccc2c1C1(COc3cc4c(cc31)OCCO4)C(=O)N2C (stereo unspecified)
The melting point of the first is lower: 96 to 98 °C for the first, 151 to 153 °C for the second.

First: Cc1ccc(CCN2CCN(c3nsc4ccccc34)CC2)c2c1C(C)(C)CC(=O)N2
Second: CCOC(=O)N1CCN(c2nc3cccccc-3n2)CC1
The melting point of the first is lower: 129 °C for the first, 136 to 138 °C for the second.

First: N#CCc1nn2c(-c3cccc(C(F)(F)F)c3)ccnc2c1C#N
Second: Cc1c(Cc2cccc(C(F)(F)F)c2)oc2cccc(O)c12
The melting point of the first is higher: 180 to 181 °C for the first, 91 to 92 °C for the second.

First: CC(C)CC(Br)C(=O)N1CCC[C@H]1CO (stereo partly specified)
Second: CC(C)NC(=O)n1nc(N(C)C)n(C)c1=O
The melting point of the first is higher: 79 to 82 °C for the first, 36 to 38 °C for the second.

First: CC(=O)c1cc(I)c(O)c(Cl)n1
Second: COc1ccc2cc(C(=O)Cl)oc2c1
The melting point of the first is higher: 223 to 224 °C for the first, 96 to 99 °C for the second.

First: O=S(=O)(NC[C@@H](CO)NC(c1ccccc1)(c1ccccc1)c1ccccc1)c1ccc(Oc2ccccc2)cc1
Second: O=S(=O)(Nc1ccccc1COc1cccc2cccnc12)c1ccc(F)cc1
The melting point of the first is lower: 67 to 70 °C for the first, 121 to 122 °C for the second.

First: CC(=NC(=Nc1ccccc1)N1CCOCC1)NCc1ccccc1
Second: CN(C)CCC(=O)n1cc(-c2ccccc2)c2ccccc21
The melting point of the first is lower: 126 to 129 °C for the first, 137 to 138 °C for the second.

Compared with `CC1=NS(=O)(=O)N(C(c2ccccc2)c2ccccc2)C=C1`, `O=C1c2ccccc2C(=O)N1C(Sc1ccccc1)c1ccccc1` (stereo unspecified) is lower in melting point: 174 to 177 °C for the first, 97 to 99 °C for the second.

First: CN(C)S(=O)(=O)c1cc(-c2csc(=Nc3ccc(C(F)(F)F)cc3)n2C)ccc1Cl
Second: O=S(=O)(Nc1ncnc(OCCO)c1-c1ccc(Cl)cc1)c1ccc(C(F)(F)F)cc1
The melting point of the first is lower: 147 to 151 °C for the first, 160 to 162 °C for the second.

Compared with `CN(C)CCSc1cc(NC(=O)OC(C)(C)C)c(N)cc1C#Cc1ccccc1`, `CC(C)(C)OC(=O)C(Cl)=CC1C(C(=O)OC(C#N)c2ccc(F)c(Oc3ccccc3)c2)C1(C)C` (stereo unspecified) is lower in melting point: 115 to 117 °C for the first, 94 °C for the second.

First: COc1cc(OC)c(-c2cc3ccccc3n2C)cc1C=CC(=O)c1ccc(S(=O)(=O)NCCN2CCOCC2)cc1
Second: COc1ccccc1Oc1c(N)nc(N2CCOCC2)nc1OCCO
The melting point of the first is higher: 167 to 168 °C for the first, 136 to 138 °C for the second.

Compared with `CCOC(=O)c1cn(-c2cc(N(C)C(=O)OC(C)(C)C)c(F)cc2F)c2c(C)c(F)c(F)cc2c1=O`, `CCOC(=O)C(Cc1cc(C)cc(OC(F)(F)C(F)F)c1)C(=O)c1ccc(F)cc1` (stereo unspecified) is lower in melting point: 217 to 218 °C for the first, 56 to 57 °C for the second.

Compared with `O=c1[nH]ncc2[nH]c(-c3ccc(OC(F)F)c(OC4CC4)c3)c(Cc3ccccc3)c12`, `CS(=O)(=O)c1ccc(-c2cnn(CC(F)(F)F)c(=O)c2Cc2ccccc2)cc1` is lower in melting point: 215 to 217 °C for the first, 112 to 114 °C for the second.

Compared with `CC(=O)C1=C(O)C(=C(C)Nc2cccc(NS(=O)(=O)c3ccccc3)c2)C(=O)OC1=O`, `COC(=O)c1cccc2nc(-c3ccccc3)oc12` is lower in melting point: 209 °C for the first, 77 °C for the second.

First: CCCn1c(=O)c2[nH]c(C34CC5CC(CC(O)(C5)C3)C4)nc2n(CCC)c1=O
Second: CCCN(CCC)S(=O)(=O)c1cc(OC)c(OC)cc1C=Cc1nc2c(c(=O)n(CCC)c(=O)n2CCC)n1C
The melting point of the first is higher: 213 to 214 °C for the first, 208 °C for the second.

First: Cc1nn(-c2ccccn2)cc1COc1ccc(CC(=O)O)cc1
Second: CC(=O)C=CC=Cc1ccc(OCc2ccccc2)cc1
The melting point of the first is higher: 161 to 162 °C for the first, 132 to 133 °C for the second.

First: COc1ncc(C)cc1Nc1cc(C#N)c2c(c1)[C@@H]1CNCC[C@@H]1N2C
Second: COc1cccc2c(Nc3ccc(C)c(O)c3)c(C#N)cnc12
The melting point of the first is lower: 76 to 80 °C for the first, 148 to 150 °C for the second.

First: NC(=O)c1cc2c(Oc3ccc(N)cc3)cncc2s1
Second: CC(=O)N1N=C(c2ccc(N)cc2)c2cc(Br)ccc2CC1C (stereo unspecified)
The melting point of the first is higher: over 250 °C for the first, 205 to 208 °C for the second.

First: O=S(CC(O)CCl)c1ncc(Cl)cn1 (stereo unspecified)
Second: O=C(O)CC(Br)C(Br)c1ccc(Cl)cc1Cl (stereo unspecified)
The melting point of the first is lower: 170 °C for the first, 184 to 185 °C for the second.

First: Cn1ncc(/C=C/C(=O)Nc2ccc(Cc3nnn[nH]3)cc2)c1-c1ccc(F)cc1
Second: O=C(NO)c1ccc(-c2ccc3nnn(Cc4ccc5ncccc5c4)c3n2)cc1F
The melting point of the first is higher: 252 to 253 °C for the first, 180 to 182 °C for the second.

First: CCCCn1c(=O)c(NC(=O)Nc2c(C(C)C)cccc2C(C)C)c(-c2cccc(OCCO)c2)c2cccnc21
Second: O=c1c2c(Cc3cccs3)n[nH]c2c2cccnc2n1-c1cccc(OC(F)(F)F)c1
The melting point of the first is lower: 106 to 110 °C for the first, 234 to 238 °C for the second.

Compared with `CC(C)(C)NCC(O)COc1cccc(NC(N)=O)c1C(N)=O` (stereo unspecified), `CC(C)(C)OC(=O)COc1ccc2sc(-c3ccccn3)nc(=O)c2c1` is lower in melting point: 189 to 191 °C for the first, 183 to 184 °C for the second.

First: CCOC(C#N)NC(=O)c1ccc(COC)cc1 (stereo unspecified)
Second: O=C(O)c1ccc(OCCCCCCO)cc1
The melting point of the first is lower: 99 to 100 °C for the first, 132 to 135 °C for the second.

First: O=C(O)COc1ccc(SCc2ccc(OCc3ccc(F)cc3F)cc2)c2c1CCC2
Second: N#Cc1ccc(Nn2cnnc2)cc1-c1ccc(OCc2ccccc2)cc1
The melting point of the first is lower: 158 to 160 °C for the first, 180 to 182 °C for the second.

First: O=C1c2cccnc2N(N2CCOCC2)C2=NCCN12
Second: O=C(Nc1ccc(F)cc1)NC1CCN(C(=O)c2cccnc2)CC1
The melting point of the first is higher: 225 to 226 °C for the first, 118 to 122 °C for the second.

Compared with `C#CCOc1cc(-n2nc(C)c([N+](=O)[O-])c2C)c(F)cc1Cl`, `O=[N+]([O-])c1cc(Cl)c(O)cc1OCCO` is higher in melting point: 125 to 126 °C for the first, 159 °C for the second.

Compared with `NS(=O)(=O)c1nc2ccc(OC(=O)C=Cc3ccccc3)cc2s1`, `N#Cc1cc(C(=O)O)n(/C=C/c2ccccc2)c1` is lower in melting point: 235 °C for the first, 166 to 168 °C for the second.

First: CC(=O)NNC(COCc1cc(C)cc(C)c1)C1c2ccccc2C=Cc2ccccc21 (stereo unspecified)
Second: COc1ccc2ccc(N3C(=O)c4ccccc4C3OC(=O)CCCNC(C)=O)nc2n1 (stereo unspecified)
The melting point of the first is lower: 115 to 117 °C for the first, 190 °C for the second.

Compared with `COc1ccc(C=C2OC(=O)c3ccccc32)cc1N`, `COc1ccc(C=C2SC(=S)N(CC(=O)O)C2=O)cc1OCc1ccccc1` is higher in melting point: 148 to 153 °C for the first, 234 to 239 °C for the second.

Compared with `O=c1oc(-c2ccc(-c3nc4ccccc4c(=O)o3)cc2)nc2ccccc12`, `COc1ccc(-c2nc(Sc3ccc(Cl)cc3)[nH]c2-c2ccc(OC)cc2)cc1` is lower in melting point: over 300 °C for the first, 121 to 122 °C for the second.

First: CCOc1cc(-c2nc3ccccc3[nH]2)n[nH]1
Second: COc1cc(OC)c2c(=O)[nH]c(-c3ccccn3)nc2c1
The melting point of the first is higher: 217 to 220 °C for the first, 215 to 217 °C for the second.

First: O=C(O)C=Cc1cc(Oc2c(Cl)cc(C(F)(F)F)cc2Cl)ccc1[N+](=O)[O-]
Second: COC(=O)c1cc(-c2cccc(C(F)(F)F)c2)ns1
The melting point of the first is higher: 192 °C for the first, 82 to 83 °C for the second.

First: NS(=O)(=O)CCNC(=O)OCc1ccccc1
Second: COc1cc(NS(=O)(=O)CC(=O)c2ccccc2)c2c(c1)OC(C)C2 (stereo unspecified)
The melting point of the first is lower: 107 to 109 °C for the first, 143 to 145 °C for the second.

First: O=CNc1ccc(-c2c[nH]cn2)cc1
Second: COc1ccc2[nH]cc(-c3cc4nccnc4[nH]3)c2c1
The melting point of the first is lower: 108 to 109 °C for the first, 268 to 271 °C for the second.

First: CCc1nc(-c2cccc(C)c2)c(-c2ccnc(NC3CCCC3)c2)s1
Second: CN1CCC(Oc2ccc(NC(=O)n3ccc4cc(Oc5cc(CC(N)=O)ncn5)ccc43)cc2C(F)(F)F)CC1
The melting point of the first is lower: 117 to 118 °C for the first, 200 to 201 °C for the second.

Compared with `CNC(=S)n1nc(C=Cc2ccc(Cl)cc2)nc1N`, `CCc1nn(CCNC(=O)c2ccccc2)c(CC)c1Cc1cc(Cl)cc(Cl)c1` is lower in melting point: 209 to 210 °C for the first, 115 to 117 °C for the second.

First: O=C1CC(N2C=Nc3cccc(Br)c3C2)C(=O)N1 (stereo unspecified)
Second: Cn1cc(CO)c(=O)c2ccc(Br)cc21
The melting point of the first is lower: 214 to 217 °C for the first, over 300 °C for the second.

First: Cc1cc(C)n(CC2CC3c4cccc5[nH]cc(c45)CC3N(C)C2)n1 (stereo unspecified)
Second: CCOC(=O)C1=C(C)NN=C(c2ccco2)C1c1ccccc1 (stereo unspecified)
The melting point of the first is higher: 187 to 190 °C for the first, 158 °C for the second.

Compared with `BrCc1ccc2ncoc2c1`, `Clc1nccnc1Sc1ccccc1` is higher in melting point: 52 to 56 °C for the first, 100 to 111 °C for the second.

Compared with `N#CNC(=N)NCCc1c[nH]cn1`, `CCNC(=O)c1c([Si](C)(C)C)sc2ccccc12` is lower in melting point: 152 to 154 °C for the first, 121 to 124 °C for the second.

Compared with `COC(=O)c1cccc2c(SC(F)(F)F)c(OC)ccc12`, `COc1ccc(OC)c(CC2=C(C)C(=O)C3C=CC=CC3C2=O)c1` (stereo unspecified) is higher in melting point: 93 to 94 °C for the first, 140 to 142 °C for the second.

Compared with `CCC(=O)Oc1cccc2c(-c3ccccc3)c3cccc(OC(=O)CC)c3c(OC(=O)CC)c12`, `Cc1ccc(S(=O)(=O)OCCC2C3=C(CC=CC3)CCc3ccccc32)cc1` (stereo unspecified) is lower in melting point: 216 °C for the first, 150 to 151 °C for the second.

Compound `CCc1c(F)c(F)c(-n2ncc(C#N)c2NCC(C)C(=O)O)c(F)c1F` (stereo unspecified) has a melting point of 138 to 140 °C.
